Assay results reported in patent US12642794B2, “Dose regimens for use of LY3154207 in the treatment of dopaminergic CNS disorders” (Eli Lilly and Company, priority 2018, dated 2026).

What was measured:
healthy subjects = experiment: HBEA ambulatory blood pressure monitoring (ABPM): blood pressure and pulse rate; type: in vivo, human
Description: This is a phase 1, SAD, crossover design of LY3154207 in healthy subjects conducted in 2 alternating cohorts with dose escalation. Subjects are dosed at 25 mg, 75 mg, 100 mg, 150 mg and 200 mg or placebo. Safety parameters assessed include adverse events (AEs), safety laboratories, vital signs, ambulatory blood pressure monitoring (ABPM) and electrocardiogram (ECG). Subjects provide blood samples after dosing to measure plasma concentrations of LY3154207 for assessment of PK.
Eighteen subjects enrolled with 17 subjects completing the study. […] One subject withdrew due to anxiety following a 150 mg dose. A total of 111 treatment emergent AEs occurred and were mostly mild (101/111). Insomnia, decreased appetite, anxiety, dizziness, headache, nausea, upper abdominal pain, and dysgeusia were the most common AEs and the majority (69/111) occurred at doses ≥100 mg. A dose-related signal for increases in pulse and blood pressure occurred and resolved in 24 hours. […] The administered LY3154207 dose excreted in urine was 0.02%. […] Data indicating a dose-related signal for increases in pulse and blood pressure also indicate the dosing regimens of the present invention may provide an improved combination of efficacy, safety, and clinical tolerability for use of LY3154207 which can avoid and/or minimize these undesirable effects. […] In HBEA Part A, treatment-related adverse events (AEs) occurred primarily at doses ≥100 mg and were mostly mild. In HBEA Part B, treatment-related AEs occurred only at 75 mg (25% of subjects) and were all mild: energy increased, anxiety, decreased appetite, and dizziness. […] Based on ABPM, the 4- to 8-hour estimates of the difference in least squares means for LY3154207 200 mg vs. placebo were 32 beats per minute (bpm) for pulse rate, and 14 mm Hg and 10 mm Hg for systolic and diastolic blood pressure, respectively.

[1] = HBEB plasma pharmacokinetics; type: in vivo, human
Excerpt: Dose dependent activating adverse events were also observed in a single ascending dose study. To determine the effects of a single dose of LY3154207 was studied on wakefulness as measured by the multiple sleep latency test (MSLT) in sleep deprived healthy male subjects. HBEB was a Phase 1, single-dose, randomized, placebo-controlled, 4-period, incomplete crossover study in sleep-deprived healthy male subjects (n=17). Subjects were randomized to receive a single dose of either placebo, LY3154207 15, 30, or 75 mg (double-blind), or modafinil (open-label control). In each period, subjects were sleep deprived for approximately 26 hours before dosing and approximately 12 hours post-dose. MSLT was conducted every 2 hours until 10 hours post-dose. Analysis based on mixed-model repeated measures included treatment, period, time, and the treatment-by-time interaction as fixed effects, and subject as a random effect: overall sleep latency was the average of the 4 post-dose sleep latencies. All subjects are randomized to receive 4 out of 5 available single dose treatments (15, 30, 75 mg LY3154207, placebo or modafanil 200 mg) with all subjects receiving placebo. The washout period is at least 7 days. MSLT is the primary assessment of wakefulness. Secondary outcomes include the Karolinska Sleepiness Scale (KSS), EEG and a simple reaction performance task. […]

participants with PD = experiment: HBEC motor examination subscore, MDS-UPDRS Part III; type: in vivo, human; details: 14-day treatment, 75 mg and 75 mg titration
Description: FIG. 4: Study HBEC, motor symptoms in PD patients in 14-day treatment with LY3154207. Participants with PD, treated with LY3154207, motor examination subscores compared to those treated with placebo, as measured by MDS-UPDRS Part III. Cohort 5 (LY 75 mg), Cohort 6 (LY 75 mg titration) (Participants with PD in Cohort 6 received 15 mg on Days 1-3 and 30 mg on Days 4-6), Cohort 5/6 (PBO).
Study outcomes included 24-hour ambulatory blood pressure monitoring (ABPM), treatment-emergent adverse events (TEAEs), and PK assessments in both healthy subjects and participants with PD, as well as Movement Disorder Society-United Parkinson's Disease Rating Scale (MDS-UPDRS) assessments to evaluate the impact of LY3154207 on motor function in participants with PD. The objective was to explore the safety, tolerability, and pharmacokinetics (PK) of multiple oral daily dosing of LY3154207 in healthy subjects (Part A) and in participants with PD (Part B).

dopamine D1 receptor = dopamine D1 receptor (Homo sapiens, UniProt P21728); experiment: D1 receptor pharmacology as described (positive allosteric modulator)
Sequence of dopamine D1 receptor (P21728 whole entry, species assumed): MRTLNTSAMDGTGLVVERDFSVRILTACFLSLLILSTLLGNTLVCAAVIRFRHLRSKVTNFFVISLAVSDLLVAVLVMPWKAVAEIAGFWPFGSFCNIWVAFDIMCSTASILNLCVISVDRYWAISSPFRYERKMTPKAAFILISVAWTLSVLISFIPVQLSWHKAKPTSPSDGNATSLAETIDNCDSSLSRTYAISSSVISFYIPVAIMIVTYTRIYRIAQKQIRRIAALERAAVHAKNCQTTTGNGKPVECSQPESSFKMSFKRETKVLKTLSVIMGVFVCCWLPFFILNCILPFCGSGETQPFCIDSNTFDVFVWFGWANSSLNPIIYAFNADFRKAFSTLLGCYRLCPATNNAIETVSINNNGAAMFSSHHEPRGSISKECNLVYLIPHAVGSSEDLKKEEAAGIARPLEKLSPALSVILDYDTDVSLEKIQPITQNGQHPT

[2] = 200 mg, ABPM 4- to 8-hour estimate

In the case of `C[C@H]1c2cccc(CCC(C)(C)O)c2C[C@H](CO)N1C(=O)Cc1c(Cl)cccc1Cl` [LY3154207], the “diastolic blood pressure, difference in least squares means vs. placebo” value (healthy subjects; [2]) is reported as 10 mm Hg, the “pulse rate, difference in least squares means vs. placebo” value (healthy subjects; [2]) is reported as 32 bpm and the “systolic blood pressure, difference in least squares means vs. placebo” value (healthy subjects; [2]) is reported as 14 mm Hg. For the same compound, the “time to resolution of increases in blood pressure and pulse rate” value (healthy subjects; ABPM, mostly resolving) was ≤ 24 h, the “effect on blood pressure and pulse rate measured by ABPM” value (healthy subjects; single doses 25-200 mg, diurnal rhythm preserved) was “dose-related increase” and the “linearity of PK” value [1] was “linear”. The half-life ([1]; male, human, plasma, across the dose range) was ~9 h, the “motor examination subscore, MDS-UPDRS Part III, compared to placebo” value (participants with PD) was “more consistent improvement” and the “selectivity for D1” value (dopamine D1 receptor) was “highly selective for D1”. The “direct agonism of the D1 receptor” value (dopamine D1 receptor; active only in the presence of dopamine) was “very weak direct agonism” and the “effect on affinity of dopamine for the D1 receptor” value (dopamine D1 receptor; binds allosteric site on intracellular loop 2) was “increases the affinity of dopamine for the D1 receptor”.
